Compound in experiment [1]: CC(=O)NCC(=O)N1[C@@H]2CC[C@H]1c1ccc(Nc3ncc(C(F)(F)F)c(NC4CCC4)n3)cc12
The experiment can be described thus: surviving fraction relative to DMSO-only wells; higher = less growth inhibition. The note with it: exposure time: 5 days. Put shortly:
(§1)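 At 250–500 cells per well in 384-well plates, log-phase tumour cell lines were seeded and, 24 hours on, exposed continuously for five days to inhibitors at 0.5, 1, 5, 10, 50, 100, 500 and 1000 nM. Viability readout was CellTiter-Glo luminescence, reported as surviving fraction normalised to the median of DMSO-only wells.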

Compound in another experiment: O=C(O)C1(C(=O)O)CCC1.[NH2-].[NH2-].[Pt+2] [CARBOPLATIN]
The experiment is described as above. Particulars: exposure time: 5 days. An outline of the steps: as §1

± gives the standard deviation of the averaged measurements.

For MDAMB436 BREAST, the surviving fraction in experiment [1] (0.5 nM) is 0.912 ± 0.039; in experiment [1] (1 nM), 0.875 ± 0.053; in experiment [1] (5 nM) it was 0.908 ± 0.033; in experiment [1] (10 nM), 0.882 ± 0.12; in experiment [1] (50 nM), 0.937 ± 0.1; in experiment [1] (100 nM) it was 0.762 ± 0.079. The surviving fraction in experiment [1] (500 nM) was 0.435 ± 0.021; in experiment [1] (1000 nM) it was 0.391 ± 0.03; with CARBOPLATIN (0.5 nM), 0.923 ± 0.041; in the experiment with CARBOPLATIN (1 nM), 0.92 ± 0.019; with CARBOPLATIN (5 nM) it was 0.998 ± 0.15; in the experiment with CARBOPLATIN (10 nM), 0.924 ± 0.11. The surviving fraction was 1.09 ± 0.21 with CARBOPLATIN (50 nM), 0.906 ± 0.078 in the experiment with CARBOPLATIN (100 nM), 1.02 ± 0.033 in the experiment with CARBOPLATIN (500 nM) and 0.924 ± 0.088 with CARBOPLATIN (1000 nM).
For HMLE3 BREAST, the surviving fraction in experiment [1] (0.5 nM) is 0.923 ± 0.046; in experiment [1] (1 nM) it was 0.934 ± 0.029; in experiment [1] (5 nM), 1.01 ± 0.053; in experiment [1] (10 nM), 0.941 ± 0.092; in experiment [1] (50 nM), 0.807 ± 0.027; in experiment [1] (100 nM) it was 0.689 ± 0.0078. Besides, the surviving fraction in experiment [1] (500 nM) was 0.357 ± 0.026; in experiment [1] (1000 nM) it was 0.237 ± 0.041; with CARBOPLATIN (0.5 nM) it was 1.07 ± 0.033; in the experiment with CARBOPLATIN (1 nM), 1.1 ± 0.053; with CARBOPLATIN (5 nM), 1.11 ± 0.06; with CARBOPLATIN (10 nM), 1.18 ± 0.092. Moreover, the surviving fraction in the experiment with CARBOPLATIN (50 nM) is 1.06 ± 0.042; with CARBOPLATIN (100 nM) it was 1.05 ± 0.11; with CARBOPLATIN (500 nM) it was 1.02 ± 0.057; in the experiment with CARBOPLATIN (1000 nM), 1.08 ± 0.13.
For 22RV1 PROSTATE, the surviving fraction amounted to 0.97 ± 0.066 in experiment [1] (0.5 nM); 0.996 ± 0.047 in experiment [1] (1 nM); 0.937 ± 0.029 in experiment [1] (5 nM); 0.95 ± 0.03 in experiment [1] (10 nM); 0.587 ± 0.021 in experiment [1] (50 nM); 0.678 ± 0.026 in experiment [1] (100 nM). The surviving fraction in experiment [1] (500 nM) turned out to be 0.625 ± 0.059; in experiment [1] (1000 nM) it was 0.56 ± 0.066; with CARBOPLATIN (0.5 nM), 1.1 ± 0.072; with CARBOPLATIN (1 nM) it was 0.999 ± 0.057; with CARBOPLATIN (5 nM), 1.03 ± 0.051; in the experiment with CARBOPLATIN (10 nM), 1.02 ± 0.036. The surviving fraction was 1.06 ± 0.093 with CARBOPLATIN (50 nM), 1.04 ± 0.12 with CARBOPLATIN (100 nM), 1.06 ± 0.068 in the experiment with CARBOPLATIN (500 nM) and 1.13 ± 0.17 in the experiment with CARBOPLATIN (1000 nM).
SUM149 BREAST: the surviving fraction was 0.949 ± 0.11 in experiment [1] (0.5 nM); 1.02 ± 0.11 in experiment [1] (1 nM); 1.07 ± 0.089 in experiment [1] (5 nM); 0.986 ± 0.056 in experiment [1] (10 nM); 0.67 ± 0.074 in experiment [1] (50 nM); 0.389 ± 0.071 in experiment [1] (100 nM). The surviving fraction in experiment [1] (500 nM) turned out to be 0.267 ± 0.029; in experiment [1] (1000 nM), 0.224 ± 0.032; in the experiment with CARBOPLATIN (0.5 nM) it was 1.02 ± 0.019; with CARBOPLATIN (1 nM), 1.04 ± 0.13; with CARBOPLATIN (5 nM), 1.02 ± 0.049; in the experiment with CARBOPLATIN (10 nM) it was 0.943 ± 0.074. Also, the surviving fraction worked out at 0.909 ± 0.06 with CARBOPLATIN (50 nM), 0.905 ± 0.076 in the experiment with CARBOPLATIN (100 nM), 0.927 ± 0.057 with CARBOPLATIN (500 nM) and 0.927 ± 0.077 with CARBOPLATIN (1000 nM).
Take G292 BONE: the surviving fraction stood at 0.997 ± 0.043 in experiment [1] (0.5 nM); 0.968 ± 0.052 in experiment [1] (1 nM); 0.999 ± 0.025 in experiment [1] (5 nM); 0.949 ± 0.015 in experiment [1] (10 nM); 0.59 ± 0.028 in experiment [1] (50 nM); 0.485 ± 0.017 in experiment [1] (100 nM). For the same test system, the surviving fraction in experiment [1] (500 nM) is 0.181 ± 0.0022; in experiment [1] (1000 nM), 0.087 ± 0.001; with CARBOPLATIN (0.5 nM) it was 1.01 ± 0.039; with CARBOPLATIN (1 nM), 1 ± 0.026; with CARBOPLATIN (5 nM), 1.07 ± 0.044; with CARBOPLATIN (10 nM), 1.05 ± 0.015. The surviving fraction is 1.04 ± 0.064 with CARBOPLATIN (50 nM), 1.04 ± 0.029 in the experiment with CARBOPLATIN (100 nM), 1.01 ± 0.021 with CARBOPLATIN (500 nM) and 1.03 ± 0.064 with CARBOPLATIN (1000 nM).
Regarding LNCAP PROSTATE, the surviving fraction was found to be 0.859 ± 0.059 in experiment [1] (0.5 nM); 0.872 ± 0.052 in experiment [1] (1 nM); 0.77 ± 0.08 in experiment [1] (5 nM); 0.893 ± 0.19 in experiment [1] (10 nM); 0.416 ± 0.044 in experiment [1] (50 nM); 0.46 ± 0.046 in experiment [1] (100 nM). Besides, the surviving fraction in experiment [1] (500 nM) was found to be 0.689 ± 0.0089; in experiment [1] (1000 nM), 0.664 ± 0.097; with CARBOPLATIN (0.5 nM), 1.02 ± 0.043; in the experiment with CARBOPLATIN (1 nM), 0.919 ± 0.079; in the experiment with CARBOPLATIN (5 nM), 0.981 ± 0.023; with CARBOPLATIN (10 nM), 1.03 ± 0.086. The surviving fraction in the experiment with CARBOPLATIN (50 nM) was found to be 1.09 ± 0.031; with CARBOPLATIN (100 nM), 1.04 ± 0.046; with CARBOPLATIN (500 nM), 1 ± 0.18; in the experiment with CARBOPLATIN (1000 nM) it was 0.977 ± 0.077.
Take CME SYNOVIAL: the surviving fraction in experiment [1] (0.5 nM) was determined as 1.13 ± 0.079; in experiment [1] (1 nM), 1.02 ± 0.17; in experiment [1] (5 nM), 0.992 ± 0.16; in experiment [1] (10 nM), 1.08 ± 0.066; in experiment [1] (50 nM) it was 0.915 ± 0.032; in experiment [1] (100 nM) it was 0.395 ± 0.036. For the same test system, the surviving fraction is 0.255 ± 0.02 in experiment [1] (500 nM); 0.33 ± 0.015 in experiment [1] (1000 nM); 1.25 ± 0.15 in the experiment with CARBOPLATIN (0.5 nM); 1.36 ± 0.039 in the experiment with CARBOPLATIN (1 nM); 1.4 ± 0.047 with CARBOPLATIN (5 nM); 1.48 ± 0.061 with CARBOPLATIN (10 nM). The surviving fraction amounted to 1.35 ± 0.16 with CARBOPLATIN (50 nM), 1.42 ± 0.024 with CARBOPLATIN (100 nM), 1.3 ± 0.14 in the experiment with CARBOPLATIN (500 nM) and 1.39 ± 0.082 in the experiment with CARBOPLATIN (1000 nM).

These data come from the supplement of paper PMC6045584.
